Assay results from ChEMBL document CHEMBL1201862, “PubChem BioAssay data set” (2004).
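Cells were grown in 96-well plates and exposed to each compound for 48 hours at five concentrations; endpoints were interpolated linearly between bracketing concentrations, or set to the highest concentration if not reached. The concentration for 50% growth inhibition is given as GI50.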 Calls of active or inactive are those of the source. Cut-off read from the data, not from the text of the source: active = GI50 up to about 1.1 µM and inactive = higher.

Legend:
Assay in all cases: NCI-60 cell line screen, 48 h
K562 = test system: K562
UO-31 = test system: UO-31
T47D = test system: T47D
SNB-75 = test system: SNB-75
NCI/ADR-RES = test system: NCI/ADR-RES
COLO 205 = test system: COLO 205
NCI-H522 = test system: NCI-H522
BT-549 = test system: BT-549
HT-29 = test system: HT-29
HCT-116 = test system: HCT-116
OVCAR-8 = test system: OVCAR-8
MDA-MB-231 = test system: MDA-MB-231
Malme-3M = test system: Malme-3M
NCI-H226 = test system: NCI-H226
MCF7 = test system: MCF7
SNB-19 = test system: SNB-19
SF-539 = test system: SF-539
HOP-62 = test system: HOP-62
UACC-62 = test system: UACC-62
EKVX = test system: EKVX
A498 = test system: A498
SK-MEL-2 = test system: SK-MEL-2
SN12C = test system: SN12C
ACHN = test system: ACHN
MOLT-4 = test system: MOLT-4
CAKI-1 = test system: CAKI-1
OVCAR-5 = test system: OVCAR-5
SK-MEL-28 = test system: SK-MEL-28
A549 = test system: A549
OVCAR-4 = test system: OVCAR-4
M14 = test system: M14
SF-268 = test system: SF-268
SK-OV-3 = test system: SK-OV-3
PC-3 = test system: PC-3
MDA-N = test system: MDA-N
RXF 393 = test system: RXF 393
TK-10 = test system: TK-10
HCC 2998 = test system: HCC 2998
UACC-257 = test system: UACC-257
HL-60 = test system: HL-60
NCI-H460 = test system: NCI-H460
SW-620 = test system: SW-620
SF-295 = test system: SF-295
Hs-578T = test system: Hs-578T
OVCAR-3 = test system: OVCAR-3
CCRF-CEM = test system: CCRF-CEM
HOP-92 = test system: HOP-92
SR = test system: SR
MDA-MB-435 = test system: MDA-MB-435
RPMI-8226 = test system: RPMI-8226
SK-MEL-5 = test system: SK-MEL-5
KM12 = test system: KM12
786-0 = test system: 786-0
IGROV-1 = test system: IGROV-1
NCI-H23 = test system: NCI-H23
U-251 = test system: U-251
HCT-15 = test system: HCT-15
DU-145 = test system: DU-145
LOX IMVI = test system: LOX IMVI

Measured: GI50

O=C(O)C1=C/C(=C(/c2ccccc2)c2cc(C(=O)O)c(O)c3ccccc23)c2ccccc2C1=O
inactive: K562 > 100 µM | UO-31 > 100 µM | T47D > 100 µM | SNB-75 > 100 µM | NCI/ADR-RES > 100 µM | COLO 205 > 100 µM | NCI-H522 > 100 µM | BT-549 > 100 µM | HT-29 > 100 µM | HCT-116 > 100 µM | OVCAR-8 > 100 µM | MDA-MB-231 > 100 µM | Malme-3M > 100 µM | NCI-H226 > 100 µM | MCF7 > 100 µM | SNB-19 > 100 µM | SF-539 > 100 µM | HOP-62 > 100 µM | UACC-62 > 100 µM | EKVX > 100 µM | A498 > 100 µM | SK-MEL-2 > 100 µM | SN12C > 100 µM | ACHN > 100 µM | MOLT-4 > 100 µM | CAKI-1 > 100 µM | OVCAR-5 > 100 µM | SK-MEL-28 > 100 µM | A549 > 100 µM | OVCAR-4 > 100 µM | M14 > 100 µM | SF-268 > 100 µM | SK-OV-3 > 100 µM | PC-3 > 100 µM | MDA-N > 100 µM | RXF 393 > 100 µM | TK-10 > 100 µM | HCC 2998 > 100 µM | UACC-257 > 100 µM | NCI-H460 > 100 µM | SW-620 > 100 µM | SF-295 > 100 µM | Hs-578T > 100 µM | OVCAR-3 > 100 µM | HOP-92 > 100 µM | SR > 100 µM | MDA-MB-435 > 100 µM | RPMI-8226 > 100 µM | SK-MEL-5 > 100 µM | KM12 > 100 µM | 786-0 > 100 µM | IGROV-1 > 100 µM | NCI-H23 > 100 µM | U-251 > 100 µM | DU-145 > 100 µM
> 100 µM: HCT-15
active: HL-60 < 0.01 µM | CCRF-CEM < 0.01 µM

CN(C)CCOc1ccc2[nH]c(C(=O)N3CC(CCl)c4c3cc([N+](=O)[O-])c3ccccc43)cc2c1 (stereo unspecified)
inactive: K562 1.79 µM | UO-31 15.1 µM | T47D 1.89 µM | SNB-75 1.85 µM | NCI/ADR-RES 1.65 µM | COLO 205 3.25 µM | BT-549 2.3 µM | HT-29 2.15 µM | HCT-116 1.67 µM | LOX IMVI 2.58 µM | OVCAR-8 1.6 µM | MDA-MB-231 3.23 µM | Malme-3M 1.94 µM | NCI-H226 54.1 µM | MCF7 1.76 µM | SNB-19 2.36 µM | SF-539 1.69 µM | HOP-62 1.88 µM | UACC-62 2.21 µM | EKVX 3.13 µM | A498 2.94 µM | SK-MEL-2 2.15 µM | ACHN 1.95 µM | MOLT-4 1.29 µM | CAKI-1 2.79 µM | OVCAR-5 2.32 µM | SK-MEL-28 1.72 µM | M14 2.07 µM | SF-268 1.71 µM | SK-OV-3 27.3 µM | PC-3 2.78 µM | MDA-N 3.68 µM | RXF 393 1.55 µM | TK-10 1.94 µM | UACC-257 2.01 µM | HL-60 3.2 µM | NCI-H460 1.77 µM | SW-620 2.17 µM | SF-295 2.51 µM | Hs-578T 3.01 µM | OVCAR-3 1.87 µM | CCRF-CEM 1.58 µM | SR 1.72 µM | MDA-MB-435 2 µM | RPMI-8226 2.67 µM | SK-MEL-5 1.7 µM | KM12 1.71 µM | 786-0 2.1 µM | IGROV-1 2.14 µM | NCI-H23 2.74 µM | U-251 2.06 µM | DU-145 2.55 µM
1.86 µM: HCT-15
